Assay results as given in US7629371B2, “Cosmetic use of a composition containing at least one oxazoline, serving as an active substance, as a slimming product and/or for preventing and/or treating cellulite” (Laboratoires Expanscience, priority 2003, dated 2009).

Key:
[1] = system: normal human adipocytes; test: Evaluation of lipid synthesis in adipocytes in suspension (Example 6): incorporation of radiolabelled acetate into lipids; format: cell-based; settings: for decrease of the incorporation of acetate, % of the control: FIG. 1
Method: A solution of OX100, diluted to a concentration of 10^−2 M in DMSO, was tested.
Normal human adipocytes were isolated from abdominal biopsies (plastic surgery). Immediately after they have been received, the samples are incubated for 30 minutes at 37° C. in the presence of collagenase (supplied by the company Sigma). The adipocyte suspension is subsequently rinsed and diluted three times in the culture medium. The culture medium consists of: • 1.87 mg/ml bicarbonate (supplied by the company Life Technologies), • 25 IU/ml/25 μg/ml of penicillin/streptomycin (supplied by the company Life Technologies), • 2 mM of glutamine (supplied by the company Life Technologies), • 100% v/v of MEM (supplied by the company Merck Eurolab), and • 0.5% w/v of albumin of bovine origin (supplied by the company Sigma). Evaluation of Lipid Synthesis
The adipocytes in suspension are incubated for 1 hour at 37° C. in the presence of various concentrations of OX100. The OX100 concentrations tested are 20 μM, 4 μM and 0.8 μM.
A volume of 10 ml of radiolabelled acetate (2-C^14, 60.87 μCi/ml, supplied by the company Amersham) is subsequently added to the preparation.
After incubation for 4 hours, the lipids are extracted according to the procedure described by Bligh and Dyer, Can J Biochem Physiol, 37, 922, (1959), (methanol/chloroform/water), and evaporated under nitrogen, and the radioactivity incorporated is quantified by liquid scintillation (liquid scintillation device reference LKB 1210, supplied by the company Rackbeta).
The possible interaction between the radiolabelled acetate and the OX100 was evaluated in order to confirm the specificity of labeling, by incubating the highest concentration of OX100 (20 μM) with acetate alone.

[2] = system: normal human adipocytes; test: Evaluation of lipid synthesis in adipocytes in suspension (Example 7): incorporation of radiolabelled acetate into lipids; format: cell-based; settings: for decrease of the incorporation of acetate into lipids, % of the control: FIG. 2
Method: A solution of OX100 (10^−2 M in DMSO) was tested.
Culture Conditions: They are identical to those of example 6.
The adipocytes in suspension are incubated for 1 h at 37° C. in the presence of various concentrations of OX100 (10, 20 and 100 μMO). A volume of 10 ml of radiolabelled acetate (2-C^14, 60.87 μCi/ml, Amersham) is subsequently added to the preparation. After incubation for 4 h, the lipids are extracted according to the procedure described by Bligh and Dyer (methanol/chloroform/water), and evaporated under nitrogen, and the radioactivity incorporated is quantified by liquid scintillation (Rackbeta LKB 1210).

[3] = tested at 10 μM, 1 h preincubation, 4 h with 2-C14 acetate

CCCCCCCCCCCC1=NC(C)(C)CO1 [OX100, 2-undecyl-4,4-dimethyl-1,3-oxazoline]
inhibition of lipogenesis in human adipocytes (in words) [1]: capable of inhibiting lipogenesis | decrease of the incorporation of acetate, % of the control ([1]; OX100 at 4 μM, 4 h with 2-C14 acetate): 25% | decrease of the incorporation of acetate, % of the control ([1]; OX100 at 20 μM, 4 h with 2-C14 acetate): 31% | decrease of the incorporation of acetate into lipids, % of the control ([2]; OX100 at 10 μM): 35% | decrease of the incorporation of acetate into lipids, % of the control ([2]; OX100 at 20 μM): 38% | decrease of the incorporation of acetate into lipids, % of the control ([2]; OX100 at 100 μM): 39% | inhibitory activity on lipid synthesis (in words) ([2]; human adipocytes in culture): significant inhibitory activity

C/C=C/C/C=C/CCC(=O)[C@H]1O[C@H]1C(N)=O [ceruline, reference compound]
inhibition of the incorporation of acetate (inhibition/control) [1, 3]: 95% | inhibition of the incorporation of acetate (inhibition/control) [2, 3]: 75%
